Test results as given in the supplement of paper PMC10949913.

Assays:
Test in all cases: area under concentration-response curve (viability) (AUC (a.u.)); higher = less active
Details in all cases: 48 h
[1] = tested on: NCI-H295R
In short: (§1)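 Three adrenocortical carcinoma cell lines were exposed for 48 h to library compounds at 11 concentrations in 1,536-well plates, then read by CellTiter-Glo luminescence. Signals were scaled per plate against vehicle and empty-well controls. From fitted concentration-response curves of inhibitory or non-responding classes alone, AC50 and area under the curve were obtained.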

[2] = tested on: CU-ACC1
In short: as §1

[3] = tested on: CU-ACC2
In short: as §1

SMILES | area under concentration-response curve [1] | area under concentration-response curve [2] | area under concentration-response curve [3]
CCNC(=O)C[C@H]1/N=C(/C2=CC=C(Cl)C=C2)C3=CC(=CC=C3[N]4C(=NN=C14)C)OC | 455 | 362 | 452
O=C([C@@H](Cc1cccc(C(F)(F)F)c1)N[S+](=O)([O-])c1cc(F)c2c(c1)CCNC2)N1CCCC1 | 535 | 528 | 515
CNC1CCCN(C1)C2=C(F)C=C3C(=O)\C(=C/N(C4CC4)C3=C2OC)C(O)=O (stereo not given) | 564 | 530 | 655
CCNC(=O)CCC/C=C\C[C@@H]1[C@@H](/C=C/C(O)CCc2ccccc2)[C@@H](O)C[C@@H]1O (stereo not given in full) | 571 | 508 | 646
C[C@@H]1C(=O)OC2[C@H](O)[C@]34[C@H]5C[C@@H](C(C)(C)C)[C@]36[C@@H](OC(=O)[C@@H]6O)O[C@@]4(C(=O)O5)[C@]21O (stereo not given in full) | 532 | 463 | 556
COc1ccc(/C=C/C(=O)Nc2ccccc2C(=O)O)cc1OC | 496 | 439 | 517
COc1ccc(/C=C\c2cc(OC)c(OC)c(OC)c2)cc1NC(=O)[C@H](N)CO | 521 | 542 | 594
CC(C)NCC(O)c1ccc(N[S+](C)(=O)[O-])cc1 (stereo not given) | 570 | 530 | 624
CC(=O)SCC(Cc1ccccc1)C(=O)NCC(=O)OCc1ccccc1 (stereo not given) | 573 | 556 | 582
CC1CNc2c(cccc2[S+](=O)([O-])N[C@@H](CCCNC(=N)N)C(=O)N2CC[C@@H](C)C[C@@H]2C(=O)O)C1 (stereo not given in full) | 507 | 502 | 547
C[C@H]1COC/2=C1/C(=O)C(=O)C3=C4CCCC(C)(C)C4=CC=C23 | 540 | 525 | 601
CC(=O)OC[C@@H]1O[C@H]([C@H](OC(C)=O)[C@@H]1OC(C)=O)N2\C=C/C(=O)NC2=O | 459 | 497 | 521
C[C@@H]1CC[C@H]2[C@@H](C)C(=O)O[C@@H]3O[C@@]4(C)CC[C@@H]1[C@]32OO4 | 556 | 547 | 604
CC[C@H]1OC(=O)[C@H](C)C(=O)[C@H](C)[C@@H](O[C@H]2O[C@H](C)C[C@H](N(C)C)[C@H]2O)[C@](C)(OC)C[C@@H](C)C(=O)[C@H](C)[C@H]2N(CCCCn3cnc(-c4cccnc4)c3)C(=O)O[C@]12C | 419 | 436 | 452
CCC(C)CCCCC(=O)N[C@@H](CCN)C(=O)NC(C(=O)N[C@H](CCN)C(=O)N[C@@H]1CCNC(=O)C([C@@H](C)O)NC(=O)[C@@H](CCN)NC(=O)[C@@H](CCN)NC(=O)[C@@H](CC(C)C)NC(=O)[C@H](Cc2ccccc2)NC(=O)[C@H](CCN)NC1=O)[C@@H](C)O (stereo not given in full) | 553 | 505 | 631
Clc1ccccc1C(c1ccccc1)(c1ccccc1)n1cccn1 | 520 | 496 | 489
N[S+](=O)([O-])c1cc2c(cc1Cl)NCN[S+]2(=O)[O-] | 430 | 480 | 563
CCN1C(=O)\C(=C/C2=CN=C(NC3=CC=C(C=C3)N4CCN(C)CC4)N=C12)C5=C(Cl)C=C(C=C5)C6=CN=CS6 | 568 | 562 | 604
CC1SC/2=C(C(O)=O)/C(=O)C3=CC(=C(C=C3N12)N4CCN(CC4)C\C5=C(C)\OC(=O)O5)F (stereo not given) | 565 | 586 | 612
C[S+]([O-])(=O)C1=CC=C(C=C1)C/2=C(/C(=O)OC2)C3=CC=CC=C3 | 424 | 407 | 467
CC12CC3CC(C)(C1)CC(N)(C3)C2 | 457 | 437 | 431
CC1(C)CCC(=C(CN2CCN(CC2)C3=CC=C(C=C3)C(=O)N[S+]([O-])(=O)C4=CC(=C(N[C@H](CCN5CCOCC5)CSC6=CC=CC=C6)C=C4)[S+]([O-])(=O)C(F)(F)F)\C1)/C7=CC=C(Cl)C=C7 | 463 | 439 | 373
CC(=O)N1CCC(Nc2cc(C(=O)NC[C@H](O)CN3CCc4ccccc4C3)ncn2)CC1 | 473 | 450 | 558

SMILES | area under concentration-response curve [1] | area under concentration-response curve [2] | area under concentration-response curve [3]
C[C@@H](c1ccc2nccn2c1)n1nnc2ncc(-c3cnn(C)c3)nc21 | 512 | 481 | 582
COc1cc([C@H]2Oc3cc([C@H]4Oc5cc(O)cc(O)c5C(=O)[C@@H]4O)ccc3O[C@@H]2CO)ccc1O | 587 | 585 | 632
Cc1ccc([S+](=O)([O-])Nc2nc3ccccc3nc2Nc2ccc3nsnc3c2)cc1 | 535 | 558 | 640
COc1cc2c(NC3CCN(C4CCCCC4)CC3)nc(N3CCCN(C(C)C)CC3)nc2cc1OCCCN1CCCCC1 | 519 | 534 | 562
Cc1nnc(C(C)C)n1C1CC2CCC(C1)N2CC[C@H](NC(=O)C1CCC(F)(F)CC1)c1ccccc1 (stereo not given in full) | 559 | 561 | 533
O=C1NC(O)CCN1[C@@H]1O[C@H](CO)[C@@H](O)[C@H]1O (stereo not given in full) | 585 | 539 | 646
CC(=O)Nc1ccc(O)cc1 | 445 | 348 | 467
CC1(C)O[C@@H]2C[C@H]3[C@@H]4C[C@H](F)\C5=C\C(=O)\C=C/[C@]5(C)[C@H]4[C@@H](O)C[C@]3(C)[C@@]2(O1)C(=O)CO | 588 | 515 | 622
CN1C(=O)N(c2cc(Cl)cc(Cl)c2)C(=O)[C@]12CN(Cc1cc(C(=O)O)cs1)C[C@H]2c1ccc(C#N)cc1 | 404 | 401 | 420
O=C(O)C(=O)Nc1cccc(-c2nnn[nH]2)c1 | 553 | 547 | 645
O=C1c2ccccc2-c2n[nH]c3cccc1c23 | 530 | 494 | 587
O=C(O)c1cccnc1 | 548 | 579 | 604
Cc1c(-c2ccc(-c3ccccc3F)cc2)nc2ccc(F)cc2c1C(=O)O | 521 | 595 | 620
C=CCN(/C=C1\C(=O)O[C@@H](COC)[C@]2(C)C1=C(O)C(=O)C1=C2[C@@H](OC(C)=O)C[C@]2(C)C(=O)CC[C@H]12)CC=C | 401 | 340 | 385
Cn1cc(-c2ccc3nnc(Sc4ccc5ncccc5c4)n3n2)cn1 | 525 | 516 | 447
O=C(CBr)N1CC([N+](=O)[O-])([N+](=O)[O-])C1 | 439 | 454 | 464
COc1nccc(-c2c(-c3ccc(F)cc3)ncn2C2CCNCC2)n1 | 423 | 429 | 482
Cc1ccc([S+](=O)([O-])OCC(=O)Nc2ccc(C(=O)O)c(O)c2)cc1 | 546 | 543 | 589
N#CCC1(n2cc(-c3ncnc4[nH]ccc34)cn2)CN(C2CCN(C(=O)c3ccnc(C(F)(F)F)c3F)CC2)C1 | 508 | 460 | 453
O=C(O)c1ccc(CCCc2ccc(OCCc3ccc(F)cc3)cc2)o1 | 548 | 536 | 616
COC1=CC=C2/C3=N/CCN3\C(=N/C2=C1OC)NC(=O)C4=CC=CN=C4 | 619 | 662 | 698
COc1ccc(-n2cnc3cc(C(=O)N4CCCCC4)ccc32)cc1 | 479 | 502 | 534
